In ChEMBL document CHEMBL1135266, “Covalent analogues of DNA base-pairs and triplets. Part 2: synthesis and cytostatic activity of bis(purin-6-yl)acetylenes,-diacetylenes and related compounds” (Bioorg Med Chem Lett, 2002) one finds IC50 data, which are given here for ten compounds.

For orientation: IC50 means the concentration at which inhibition is half-maximal. A lower IC50 goes with inhibition by little substance.

In test [1] the test system is L929. Put plainly: Tested in vitro for the inhibition of cell growth of murine L929 cells (ATCC CCL 1). The test is classed as functional, cell-based. As to conditions: Mus musculus; call rule not given here.
For test [2], the system named is L1210. Put plainly: Tested in vitro for the inhibition of cell growth of mouse leukemia L1210 cell (ATCC CCL 219). The test is classed as functional, cell-based.
The test system of test [3] is CCRF-CEM. Put plainly: Tested in vitro for the inhibition of cell growth of human T lymphoblastoid CCRF-CEM cell line (ATCC CCL 119). The test is classed as functional, cell-based.
Test [4] has as its system HeLa. Put plainly: Tested in vitro for the inhibition of cell growth of human cervix carcinoma HeLa S3 cell (ATCC CCL 2.2); na = not active (inhibition of cell growth at 10 uM was lower than 20%). The test is classed as functional, cell-based.
The test system of test [5] is L1210. Put plainly: Tested in vitro for the inhibition of cell growth of mouse leukemia L1210 cell (ATCC CCL 219); na = not active (inhibition of cell growth at 10 uM was lower than 20%). The test is classed as functional, cell-based.
Test [6] relates to L929. The experiment in a line: Tested in vitro for the inhibition of cell growth of murine L929 cells (ATCC CCL 1); na = not active (inhibition of cell growth at 10 uM was lower than 20%). The test is classed as functional, cell-based, Mus musculus.
The subject of test [7] is CCRF-CEM. Put plainly: Tested in vitro for the inhibition of cell growth of human T lymphoblastoid CCRF-CEM cell line (ATCC CCL 119); na = not active (inhibition of cell growth at 10 uM was lower than 20%). The class given is functional, cell-based.
For test [8], the system named is HeLa. The experiment in a line: Tested in vitro for the inhibition of cell growth of human cervix carcinoma HeLa S3 cell (ATCC CCL 2.2). The test is classed as functional, cell-based.

For `C(C#Cc1ncnc2c1ncn2Cc1ccccc1)#Cc1ncnc2c1ncn2Cc1ccccc1`, the IC50 in the test with L929 [1] is 6300 nM; in the test on L1210 [2], 370 nM; in the test with CCRF-CEM [3], 430 nM; with HeLa [4], “Not Active”.

In the case of `C(=Cc1ncnc2c1ncn2Cc1ccccc1)c1ncnc2c1ncn2Cc1ccccc1`, the IC50 entry in the test on L1210 [5], in the test on L929 [6], in the test with CCRF-CEM [7] and in the test on HeLa [4] was “Not Active” each time.

`C(C#Cc1ncnc2c1ncn2C1CCCCO1)#Cc1ncnc2c1ncn2C1CCCCO1` (stereo not given): the IC50 turned out to be 1000 nM with L929 [1], 13300 nM in the test with HeLa [8], 700 nM with L1210 [2] and 580 nM with CCRF-CEM [3].

Take `CCCCCn1cnc2c(C#Cc3ncnc4c3ncn4CCCCC)ncnc21`: the IC50 with L929 [1] worked out at 3000 nM; with HeLa [8], 15000 nM; in the test with L1210 [2], 1500 nM; with CCRF-CEM [3] it was 360 nM.

For `C(#Cc1ncnc2c1ncn2Cc1ccccc1)c1ncnc2c1ncn2Cc1ccccc1`, the 50% inhibitory concentration (IC50) with L929 [1] is 5300 nM; in the test on L1210 [2] it was 1800 nM; in the test on CCRF-CEM [3] it was 900 nM; with HeLa [4], “Not Active”.

`C(#Cc1ncnc2c1ncn2C1CCCCO1)c1ncnc2c1ncn2Cc1ccccc1` (stereo not given): the IC50 worked out at 1900 nM with L929 [1], 6000 nM in the test with HeLa [8], 900 nM in the test on L1210 [2] and 320 nM with CCRF-CEM [3].

As to `c1ccc(Cn2cnc3c(CCc4ncnc5c4ncn5Cc4ccccc4)ncnc32)cc1`, the IC50 entry with L1210 [5], in the test on L929 [6], with CCRF-CEM [7] and in the test with HeLa [4] was “Not Active” each time.

With `C(=C\c1ncnc2c1ncn2Cc1ccccc1)/c1ncnc2c1ncn2Cc1ccccc1`, the IC50 result in the test on L1210 [5], with L929 [6], in the test on CCRF-CEM [7] and in the test with HeLa [4] was “Not Active” each time.

As to `CCCCCn1cnc2c(C#CC#Cc3ncnc4c3ncn4CCCCC)ncnc21`, the IC50 in the test on L929 [1] amounted to 1300 nM; in the test on HeLa [8] it was 15000 nM; in the test on L1210 [2], 500 nM; with CCRF-CEM [3], 370 nM.

As for `O=c1[nH]c(=O)n([C@H]2C[C@H](O)[C@@H](CO)O2)cc1F` [FLOXURIDINE], the IC50 with L929 [1] was greater than 25000 nM; with HeLa [8], greater than 25000 nM; with L1210 [2] it was less than 20 nM; in the test with CCRF-CEM [3], 500 nM.
